From patent US20230406804A1, “PROTEIN KINASE INHIBITORS” (Xavier University of Louisiana, priority 2018, published 2023)
“Also recorded” adds a separate entry of the source.

How the values were obtained:
MCF-7/HER2Δ16 = assay: CellTiter-Glo cell viability, IC50; assay type: cell-based; details: Homo sapiens, MCF7, 48 h treatment, read-out: IC50 MCF-7/HER2D16
Protocol: (§1) The antagonistic activities of the compounds were tested in an estrogen receptor positive (ER+) breast cancer cell line, MCF7 breast cancer cell lines expressing HER2, HER2Δ16 and empty vector. Lapatinib was used as the positive control. The cells were treated with the compounds at 10 μM concentration for 48 h. After treatment, cell viability was tested using the CellTiter-Glo Assay (Promega). […] The […] best compounds 7, 9, the mixture of 8a+8b, 25 and 27 were then taken up for further studies.

MCF-7/HER2 = assay: CellTiter-Glo cell viability, IC50; assay type: cell-based; details: Homo sapiens, MCF7, 48 h treatment
Protocol: as §1

MCF-7/pcDNA = assay: CellTiter-Glo cell viability, IC50; assay type: cell-based; details: Homo sapiens, MCF7, 48 h treatment
Protocol: as §1

[1] = tested on: MCF7 breast cancer cell lines expressing HER2, HER2Δ16 and empty vector; assay: High-throughput cell viability screen at 10 μM (CellTiter-Glo); assay type: cell-based; details: for suppression of cell viability / inhibition in the high-throughput assay: 48 h
Protocol: The antagonistic activities of the compounds were tested in an estrogen receptor positive (ER+) breast cancer cell line, MCF7 breast cancer cell lines expressing HER2, HER2Δ16 and empty vector. Lapatinib was used as the positive control. The cells were treated with the compounds at 10 μM concentration for 48 h. After treatment, cell viability was tested using the CellTiter-Glo Assay (Promega).

HER2 residue Y1248 = assay: Western blot of HER2 autophosphorylation; assay type: cell-based; details: 10 μM, 2 h; MCF7/pcDNA, MCF7/HER2, MCF7/HER2Δ16
Text: (§2) HER2 is a member of the erbB family of tyrosine kinases, which is comprised of four partial homologous transmembrane receptors: EGFR/HER1 (erbB1), HER2 (erbB2/neu), HER3 (erbB3), and HER4 (erbB4). […] Ligand binding induces homo- or hetero-dimerization through disulfide bond linkage, and leads to receptor activation and tyrosine auto-phosphorylation. HER2 is a preferred dimerization partner due to its high catalytic activity and forms potent heterodimers with EGFR and HER3. HER2, with its intrinsic kinase activity can transphosphorylate other members of the erbB family. HER2 and HERΔ16 are overexpressed in the breast cancer cell lines that have been used in this study, leading to the kinases being constitutively active. Upon dimerization, the constitutively active HER2 and HER2Δ16 receptors can transphosphorylate coexpressed EGFR. The levels of phosphorylated HER2 in the parental MCF-7 cell line were less, resulting in its lack of dimerization with EGFR and its transphosphorylation. Western blots were performed to determine the ability of the compounds to inhibit the activation of the HER2 receptor (FIG. 7). The total and phosphorylated protein were detected upon treatment of each of the cells lines with the compounds 6, 7, 8a+8b, 9, 15, 25, 26, 27 and 28 (2-methyl-4,6-dinitro-1H-indene-1,3(2H)-dione) along with the positive control lapatinib at 10 μM concentration for 2 h. […] Compounds 26 and 28 from FIG. 5 were used as negative controls.

EGFR residue Y1068 = target: T1, EGFR residue Y1068 (Homo sapiens, UniProt P00533); assay: Western blot of EGFR transphosphorylation; assay type: cell-based; details: 10 μM, 2 h; MCF7/pcDNA, MCF7/HER2, MCF7/HER2Δ16
T1 construct: endogenous in cells; host or cells: MCF-7/pcDNA, MCF-7/HER2, MCF-7/HER2Δ16
Text: as §2

[2] = target: checkpoint kinase 2 (CHEK2) (Homo sapiens, UniProt O96017); assay: Cross kinase panel high-throughput assay; assay type: biochemical
Protocol: (§3) Compound 7 was then subjected to a cross kinase panel high-throughput assay at 10 μM concentration, at Life Technologies, to determine the selectivity of kinase inhibition (FIG. 10). A panel of 120 disease relevant kinases (available with Life Technologies) were studied. 11 kinases were inhibited at 80% or more-protein kinase B 1/2 (also known as AKT1/2), Aurora kinases A/B (AurK A/B), checkpoint kinase 2 (CHEK2), feline sarcoma kinase (FES), fibroblast growth factor 1 (FGFR1), I kappa B kinase B/E (IKK B/E), mitogen activated protein kinase kinase 1 (MAP2K1), mitogen activated protein kinase kinase kinase 8 (MAP3K8), Never in Mitosis (NIMA) related kinase 2 (NEK2), polo-like kinase 1/3 (PLK1/3), serum/glucocorticoid regulated kinase 1 (SGK1) and TEK tyrosine kinase. All these kinases except for CHEK2 are reported to have tumorigenic roles in breast cancer.

[3] = tested on: I kappa B kinase B/E (IKK B/E); assay: Cross kinase panel high-throughput assay; assay type: biochemical; details: 10 μM
Protocol: as §3

[4] = tested on: protein kinase B 1/2 (AKT1/2); assay: Cross kinase panel high-throughput assay; assay type: biochemical; details: 10 μM
Protocol: as §3

[5] = tested on: Aurora kinases A/B (AurK A/B); assay: Cross kinase panel high-throughput assay; assay type: biochemical; details: 10 μM
Protocol: as §3

[6] = target: T2, serum/glucocorticoid regulated kinase 1 (SGK1) (Homo sapiens, UniProt O00141); assay: Cross kinase panel high-throughput assay; assay type: biochemical
T2 sequence (O00141 1-431): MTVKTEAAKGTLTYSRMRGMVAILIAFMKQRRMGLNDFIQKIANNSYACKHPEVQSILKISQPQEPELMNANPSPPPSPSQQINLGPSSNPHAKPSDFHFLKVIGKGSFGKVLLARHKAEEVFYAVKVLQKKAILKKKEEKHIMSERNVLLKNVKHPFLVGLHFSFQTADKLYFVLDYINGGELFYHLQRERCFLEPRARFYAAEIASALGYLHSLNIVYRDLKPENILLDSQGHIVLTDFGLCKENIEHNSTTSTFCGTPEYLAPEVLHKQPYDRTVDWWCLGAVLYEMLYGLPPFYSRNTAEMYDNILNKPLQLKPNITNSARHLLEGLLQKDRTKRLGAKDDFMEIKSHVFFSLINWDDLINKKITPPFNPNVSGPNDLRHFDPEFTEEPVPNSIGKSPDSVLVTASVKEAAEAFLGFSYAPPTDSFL
Protocol: as §3

TEK tyrosine kinase = TEK tyrosine kinase (Homo sapiens, UniProt Q02763); assay: Cross kinase panel high-throughput assay; assay type: biochemical
Protocol: as §3

[7] = target: fibroblast growth factor 1 (FGFR1) (Homo sapiens, UniProt P11362); assay: Cross kinase panel high-throughput assay; assay type: biochemical
Protocol: as §3

[8] = tested on: polo-like kinase 1/3 (PLK1/3); assay: Cross kinase panel high-throughput assay; assay type: biochemical; details: 10 μM
Protocol: as §3

[9] = target: feline sarcoma kinase (FES) (Homo sapiens, UniProt P07332); assay: Cross kinase panel high-throughput assay; assay type: biochemical
Protocol: as §3

[10] = target: mitogen activated protein kinase kinase 1 (MAP2K1) (Homo sapiens, UniProt Q02750); assay: Cross kinase panel high-throughput assay; assay type: biochemical
Protocol: as §3

[11] = target: mitogen activated protein kinase kinase kinase 8 (MAP3K8) (Homo sapiens, UniProt P41279); assay: Cross kinase panel high-throughput assay; assay type: biochemical
Protocol: as §3

[12] = target: T3, Never in Mitosis (NIMA) related kinase 2 (NEK2) (Homo sapiens, UniProt P51955); assay: Cross kinase panel high-throughput assay; assay type: biochemical
T3 sequence (P51955 1-445): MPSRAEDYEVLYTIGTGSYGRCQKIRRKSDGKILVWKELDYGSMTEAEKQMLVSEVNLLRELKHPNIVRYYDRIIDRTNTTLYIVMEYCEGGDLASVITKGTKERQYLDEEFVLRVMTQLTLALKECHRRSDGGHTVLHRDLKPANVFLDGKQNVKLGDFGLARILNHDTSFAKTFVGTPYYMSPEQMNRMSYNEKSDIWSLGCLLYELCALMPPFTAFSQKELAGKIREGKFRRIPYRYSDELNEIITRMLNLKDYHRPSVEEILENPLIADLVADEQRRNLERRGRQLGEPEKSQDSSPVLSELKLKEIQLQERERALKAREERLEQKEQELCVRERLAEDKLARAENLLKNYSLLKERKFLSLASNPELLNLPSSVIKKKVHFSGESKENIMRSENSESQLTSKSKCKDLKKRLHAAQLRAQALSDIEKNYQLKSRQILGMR
Protocol: as §3

[13] = tested on: BT20, MDA-MB-468, MDA-MB-231, SKBR3, BT474, SUM 190PT and SUM 225CWN; assay: Growth inhibition of a panel of breast cancer cell lines; assay type: cell-based; details: triple negative, trastuzumab sensitive and trastuzumab resistant cell lines; read-out: IC50 growth inhibition, range over breast cancer cell line panel
Text: (§4) Compound 7 was taken up for further analysis of its ability to inhibit the growth of a panel of breast cancer cell lines of varied types. The panel included the triple negative cell lines BT20, MDA-MB-468 and MDA-MB-231, the trastuzumab sensitive cell lines SKBR3 and BT474, and the trastuzumab resistant cell lines SUM 190PT and SUM 225CWN (FIG. 9).

MDA-MB-231 = assay: as above; assay type: cell-based
Text: as §4

T1 sequence (P00533 25-1210): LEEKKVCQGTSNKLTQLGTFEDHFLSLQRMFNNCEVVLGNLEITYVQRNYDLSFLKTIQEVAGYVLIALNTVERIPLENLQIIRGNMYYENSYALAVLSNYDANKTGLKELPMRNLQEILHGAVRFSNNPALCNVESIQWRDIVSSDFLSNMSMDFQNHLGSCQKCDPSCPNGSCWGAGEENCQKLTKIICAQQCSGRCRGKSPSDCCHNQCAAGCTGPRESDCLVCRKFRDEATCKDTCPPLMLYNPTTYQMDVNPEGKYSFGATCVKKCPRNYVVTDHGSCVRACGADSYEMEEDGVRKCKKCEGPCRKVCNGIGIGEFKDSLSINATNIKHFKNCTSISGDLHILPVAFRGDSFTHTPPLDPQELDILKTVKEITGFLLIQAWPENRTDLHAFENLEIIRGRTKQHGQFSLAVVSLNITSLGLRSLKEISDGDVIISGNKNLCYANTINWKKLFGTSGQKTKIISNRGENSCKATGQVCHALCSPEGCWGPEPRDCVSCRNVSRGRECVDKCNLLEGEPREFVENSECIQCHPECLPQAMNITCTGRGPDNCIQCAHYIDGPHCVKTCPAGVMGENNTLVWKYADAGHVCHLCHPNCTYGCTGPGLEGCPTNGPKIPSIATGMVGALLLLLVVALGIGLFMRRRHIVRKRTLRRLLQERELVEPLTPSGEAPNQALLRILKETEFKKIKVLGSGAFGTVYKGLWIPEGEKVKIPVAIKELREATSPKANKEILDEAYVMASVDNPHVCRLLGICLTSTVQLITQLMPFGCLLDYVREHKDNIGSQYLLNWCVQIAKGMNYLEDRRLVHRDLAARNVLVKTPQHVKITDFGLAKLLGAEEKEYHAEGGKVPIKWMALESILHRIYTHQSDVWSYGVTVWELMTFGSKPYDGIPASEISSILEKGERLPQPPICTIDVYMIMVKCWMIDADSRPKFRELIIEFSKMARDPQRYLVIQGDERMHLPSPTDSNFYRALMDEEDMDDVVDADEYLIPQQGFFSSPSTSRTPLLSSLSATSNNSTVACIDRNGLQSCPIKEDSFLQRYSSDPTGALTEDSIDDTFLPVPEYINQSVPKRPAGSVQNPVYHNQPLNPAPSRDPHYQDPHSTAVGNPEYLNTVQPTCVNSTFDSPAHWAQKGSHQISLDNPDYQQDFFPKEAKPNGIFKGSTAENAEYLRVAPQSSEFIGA
Sequence of feline sarcoma kinase (FES) (P07332 whole entry): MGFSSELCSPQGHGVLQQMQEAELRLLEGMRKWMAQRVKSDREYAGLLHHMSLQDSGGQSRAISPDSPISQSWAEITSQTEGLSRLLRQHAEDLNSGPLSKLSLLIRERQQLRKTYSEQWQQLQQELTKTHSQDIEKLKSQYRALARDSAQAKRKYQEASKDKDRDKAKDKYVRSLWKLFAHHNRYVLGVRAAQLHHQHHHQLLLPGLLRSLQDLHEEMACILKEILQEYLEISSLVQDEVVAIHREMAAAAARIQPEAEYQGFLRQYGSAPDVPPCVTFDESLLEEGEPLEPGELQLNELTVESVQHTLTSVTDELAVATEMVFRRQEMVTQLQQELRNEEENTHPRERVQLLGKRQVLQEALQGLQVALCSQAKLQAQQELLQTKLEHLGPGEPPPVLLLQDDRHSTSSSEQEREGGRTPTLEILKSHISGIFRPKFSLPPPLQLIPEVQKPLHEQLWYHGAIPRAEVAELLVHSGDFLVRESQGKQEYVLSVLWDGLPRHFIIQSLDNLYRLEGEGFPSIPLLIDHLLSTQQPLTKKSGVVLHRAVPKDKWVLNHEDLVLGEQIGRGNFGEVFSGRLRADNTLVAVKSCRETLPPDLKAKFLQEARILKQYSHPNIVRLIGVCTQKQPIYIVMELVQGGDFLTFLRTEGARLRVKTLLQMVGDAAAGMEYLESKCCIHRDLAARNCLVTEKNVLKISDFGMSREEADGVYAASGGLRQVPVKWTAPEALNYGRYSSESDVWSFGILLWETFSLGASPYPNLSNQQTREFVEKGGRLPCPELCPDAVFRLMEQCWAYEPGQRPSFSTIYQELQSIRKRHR
Sequence of TEK tyrosine kinase (Q02763 23-1124): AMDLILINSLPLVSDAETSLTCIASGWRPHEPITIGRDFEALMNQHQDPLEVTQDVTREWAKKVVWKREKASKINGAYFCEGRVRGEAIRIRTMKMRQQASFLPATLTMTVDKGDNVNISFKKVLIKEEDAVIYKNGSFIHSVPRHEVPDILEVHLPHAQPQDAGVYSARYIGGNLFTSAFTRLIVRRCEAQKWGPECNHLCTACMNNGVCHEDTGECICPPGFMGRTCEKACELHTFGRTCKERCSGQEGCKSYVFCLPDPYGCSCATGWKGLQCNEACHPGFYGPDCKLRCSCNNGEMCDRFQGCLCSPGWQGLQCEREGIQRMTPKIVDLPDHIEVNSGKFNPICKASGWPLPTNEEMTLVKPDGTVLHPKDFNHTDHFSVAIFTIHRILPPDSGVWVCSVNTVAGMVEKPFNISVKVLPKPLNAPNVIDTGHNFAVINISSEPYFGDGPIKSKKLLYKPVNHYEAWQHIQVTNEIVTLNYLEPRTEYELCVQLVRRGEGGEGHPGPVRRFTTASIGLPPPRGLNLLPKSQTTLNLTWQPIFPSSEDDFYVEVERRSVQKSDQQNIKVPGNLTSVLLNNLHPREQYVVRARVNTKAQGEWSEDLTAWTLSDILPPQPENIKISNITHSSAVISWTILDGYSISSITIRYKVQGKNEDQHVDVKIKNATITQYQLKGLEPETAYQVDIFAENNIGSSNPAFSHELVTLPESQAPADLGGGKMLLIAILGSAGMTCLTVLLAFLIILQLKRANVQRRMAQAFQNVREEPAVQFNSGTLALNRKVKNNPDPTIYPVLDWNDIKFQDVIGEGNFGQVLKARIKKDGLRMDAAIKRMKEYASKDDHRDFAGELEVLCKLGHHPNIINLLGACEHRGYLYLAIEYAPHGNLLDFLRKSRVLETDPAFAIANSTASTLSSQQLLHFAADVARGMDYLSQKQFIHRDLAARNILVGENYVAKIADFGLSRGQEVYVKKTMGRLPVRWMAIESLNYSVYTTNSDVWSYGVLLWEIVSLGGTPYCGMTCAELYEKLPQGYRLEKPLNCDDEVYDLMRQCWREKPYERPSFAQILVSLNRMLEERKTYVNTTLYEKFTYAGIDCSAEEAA
Sequence of fibroblast growth factor 1 (FGFR1) (P11362 22-822): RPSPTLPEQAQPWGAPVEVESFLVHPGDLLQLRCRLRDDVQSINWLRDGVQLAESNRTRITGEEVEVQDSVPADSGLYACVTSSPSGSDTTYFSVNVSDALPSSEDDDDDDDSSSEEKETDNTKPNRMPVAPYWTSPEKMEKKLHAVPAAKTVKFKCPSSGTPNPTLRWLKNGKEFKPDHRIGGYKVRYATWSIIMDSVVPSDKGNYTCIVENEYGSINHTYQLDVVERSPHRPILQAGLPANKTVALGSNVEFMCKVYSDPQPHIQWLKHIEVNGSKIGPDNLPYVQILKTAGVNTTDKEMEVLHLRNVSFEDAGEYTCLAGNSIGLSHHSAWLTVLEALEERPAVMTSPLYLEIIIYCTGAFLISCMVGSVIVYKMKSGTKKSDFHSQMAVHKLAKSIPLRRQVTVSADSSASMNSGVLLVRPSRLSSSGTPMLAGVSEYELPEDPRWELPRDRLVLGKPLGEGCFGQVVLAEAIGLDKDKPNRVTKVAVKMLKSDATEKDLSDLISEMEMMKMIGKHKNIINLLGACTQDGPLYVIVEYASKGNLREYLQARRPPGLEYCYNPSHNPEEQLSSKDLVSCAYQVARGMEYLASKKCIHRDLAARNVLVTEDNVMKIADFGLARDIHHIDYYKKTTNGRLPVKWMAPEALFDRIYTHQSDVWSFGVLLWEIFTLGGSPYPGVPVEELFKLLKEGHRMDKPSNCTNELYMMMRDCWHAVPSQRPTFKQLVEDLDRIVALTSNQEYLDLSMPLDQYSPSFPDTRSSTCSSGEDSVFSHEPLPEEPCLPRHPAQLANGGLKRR
Sequence of mitogen activated protein kinase kinase kinase 8 (MAP3K8) (P41279 whole entry): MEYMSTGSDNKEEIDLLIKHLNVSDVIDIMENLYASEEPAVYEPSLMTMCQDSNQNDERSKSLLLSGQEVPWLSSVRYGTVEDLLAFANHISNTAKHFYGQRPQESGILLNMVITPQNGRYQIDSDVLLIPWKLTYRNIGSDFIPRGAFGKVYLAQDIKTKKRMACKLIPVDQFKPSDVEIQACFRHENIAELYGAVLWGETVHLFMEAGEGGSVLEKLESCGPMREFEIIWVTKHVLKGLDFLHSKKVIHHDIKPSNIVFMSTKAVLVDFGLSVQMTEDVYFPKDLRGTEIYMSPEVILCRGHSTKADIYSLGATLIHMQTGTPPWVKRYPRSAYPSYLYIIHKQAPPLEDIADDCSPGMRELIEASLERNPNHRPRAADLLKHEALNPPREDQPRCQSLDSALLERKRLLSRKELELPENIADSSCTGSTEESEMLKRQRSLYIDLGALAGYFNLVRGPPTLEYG
Sequence of mitogen activated protein kinase kinase 1 (MAP2K1) (Q02750 whole entry): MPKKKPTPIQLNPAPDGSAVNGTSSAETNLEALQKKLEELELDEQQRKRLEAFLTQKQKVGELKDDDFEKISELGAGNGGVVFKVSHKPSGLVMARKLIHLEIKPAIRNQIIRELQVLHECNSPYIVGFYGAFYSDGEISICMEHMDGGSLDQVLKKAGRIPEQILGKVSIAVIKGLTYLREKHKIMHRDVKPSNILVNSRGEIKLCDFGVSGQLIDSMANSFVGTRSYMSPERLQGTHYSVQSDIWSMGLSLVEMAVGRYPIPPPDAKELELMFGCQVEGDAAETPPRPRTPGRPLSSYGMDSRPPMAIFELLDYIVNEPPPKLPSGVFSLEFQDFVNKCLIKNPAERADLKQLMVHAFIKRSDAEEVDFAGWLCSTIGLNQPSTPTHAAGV

Compound | IC50 (MCF-7/HER2Δ16) [µM] | IC50 (MCF-7/HER2) [µM] | IC50 (MCF-7/pcDNA) [µM] | inhibition of autophosphorylation at HER2-Y1248 (western blot) (HER2 residue Y1248) | suppression of cell viability / inhibition in the high-throughput assay [1] | inhibition of phosphorylation at EGFR-Y1068 (western blot) (EGFR residue Y1068) | also measured
CS(=O)(=O)CCNCc1ccc(-c2ccc3ncnc(Nc4ccc(OCc5cccc(F)c5)c(Cl)c4)c3c2)o1 [Lapatinib, reference compound] | 19.2 | 15.8 | 15.7 |  |  |  | viability at 10 µM ([1]; Homo sapiens, MCF7, 48 h): < 70%
O=C1C=CC(=O)c2c(O)cc(CBr)cc21 [Compound 26, 5-hydroxy-7-bromomethylnaphthalene-1,4-dione] |  |  |  | did not show such an effect on auto-phosphorylation; also recorded: did not show notable inhibition of phosphorylation | showed notable inhibition |  | 
Cc1cc(O)c2c(c1)C(=O)C=CC2=O [Compound 25, 5-hydroxy-7-methylnaphthalene-1,4-dione] |  |  | 30.9 | did not show such an effect on auto-phosphorylation; also recorded: did not show notable inhibition of phosphorylation | showed notable inhibition |  | 
O=C1C=C(CBr)C(=O)c2c(O)ccc(O)c21 [Compound 9, 2-(bromomethyl)-5,8-dihydroxynaphthalene-1,4-dione] | 3.61 | 1.78 | 1.66 | significantly decreased HER2 activating phosphorylation to the same extent as lapatinib; also recorded: inhibit the phosphorylation |  | decreased; also recorded: inhibit the phosphorylation | 
CC1=CC(=O)c2c(O)ccc(O)c2C1=O [Compound 6, 5,8-dihydroxy-2-methylnaphthalene-1,4-dione] |  |  |  | significantly decreased HER2 activating phosphorylation to the same extent as lapatinib; also recorded: inhibit the phosphorylation |  | decreased; also recorded: inhibit the phosphorylation | 
Cc1ccc(O)c2c1C(=O)C=CC2=O [Compound 22, 5-hydroxy-8-methylnaphthalene-1,4-dione] | 9.39 | 4.61 | 2.93 |  |  |  | 
CC1C(=O)c2cc([N+](=O)[O-])cc([N+](=O)[O-])c2C1=O (stereo not shown) [Compound 28, 2-methyl-4,6-dinitro-1H-indene-1,3(2H)-dione] |  |  |  | shows significant phosphorylation | did not show notable growth inhibition | shows significant phosphorylation | 
COc1cc(C)cc2c1C(=O)C=CC2=O [Compound 27, 5-methoxy-7-methylnaphthalene-1,4-dione] | 7.3 | 3.18 | 4.94 | did not show such an effect on auto-phosphorylation; also recorded: did not show notable inhibition of phosphorylation | showed notable inhibition |  | 
Cc1cc(O)c2c(c1O)C(=O)C=CC2=O [Compound 7, 5,8-dihydroxy-6-methylnaphthalene-1,4-dione] | 0.51 | 0.29 | 0.32 | significantly decreased HER2 activating phosphorylation to the same extent as lapatinib; also recorded: inhibit the phosphorylation |  | decreased; also recorded: inhibit the phosphorylation | inhibition at 10 µM [2]: ≥ 80%; kinase inhibition IKK B/E [3]: ≥ 80%; kinase inhibition AKT1/2 [4]: ≥ 80%; kinase inhibition AurK A/B [5]: ≥ 80%; inhibition at 10 µM [6]: ≥ 80%; inhibition at 10 µM (TEK tyrosine kinase): ≥ 80%; inhibition at 10 µM [7]: ≥ 80%; kinase inhibition PLK1/3 [8]: ≥ 80%; inhibition at 10 µM [9]: ≥ 80%; inhibition at 10 µM [10]: ≥ 80%; inhibition at 10 µM [11]: ≥ 80%; inhibition at 10 µM [12]: ≥ 80%; IC50 [13]: 0.123 to 2.92 µM; fold decrease in potency versus the other cell lines (MDA-MB-231): 3-4 fold
